In publication PMC11375794, “Discovery of new Hsp90–Cdc37 protein–protein interaction inhibitors: in silico screening and optimization of anticancer activity” (RSC Advances, 2024):

Experiments:
[1] = test system: leukemia cell line THP-1; assay: MTS cell viability (antiproliferative) assay in THP-1; format: cell-based; settings: Homo sapiens, THP-1, 72 hours, mean ± SD
Experimental: (§1) Hormone-positive breast cancer cell line MCF-7 (ATCC-HTB-22; ATCC) was grown in Dulbecco's Modified Eagle's Medium (DMEM), while Ewing sarcoma cell line SK-N-MC (a kind gift from Beat Schäfer) and THP-1 (ATCC-TIB-202; ATCC) cells were grown in Roswell Park Memorial Institute (RPMI) 1640. The medium was supplemented with 10% heat-inactivated fetal bovine serum (Gibco, Thermo Fisher Scientific, Waltham, MA, USA), 100 U per mL penicillin, 100 μg per mL streptomycin, and 2 mM L-glutamine (all from Sigma-Aldrich, St. Louis, MO, USA). All cell lines were incubated at 37 °C in a 5% CO2 atmosphere.
(§2) The antiproliferative activity of the compounds was evaluated against MCF-7 (ATCC-HTB-22; ATCC), SK-N-MC (a kind gift from Beat Schäfer) and THP-1 (ATCC-TIB-202; ATCC) cancer cell lines using the MTS assay (Promega, Madison, WI, USA). Cells were seeded in 96-well plates at a density of 2 × 10^4 cells per mL in 100 μL of growth medium for THP-1 and were treated with compounds and controls directly, while 3 × 10^3 cells per mL for MCF-7 and SK-N-MC were seeded in 100 μL of growth medium and allowed to adhere overnight following the treatment. In all cases the cells were treated with respective newly prepared compounds, positive controls (17-DMAG for MCF-7 and SK-N-MC; PU-H71 for THP-1) and a vehicle control (0.5% DMSO). The incubation time after treatment was 72 hours, then CellTiter96® Aqueous One Solution Reagent (Promega, Madison, WI, USA) was added to each well. Following a 3 hours incubation, absorbance was measured at 492 nm using BioTek's Synergy™ 4 Hybrid Microplate Reader (Winooski, VT, USA). The measurements were performed in two biological repetitions and each time the experiment was performed in a triplicate. The IC50 values, representing the concentration of inhibitor required for half-maximal inhibition, are the average of three independent experiments and were calculated using GraphPad Prism 9.5.0 software (San Diego, CA, USA).

[2] = Solubility as observed in MST; format: physicochemical; settings: MST assay buffer
Experimental: The full-length Hsp90β was labeled using the Monolith His-Tag Labeling Kit RED-tris-NTA following the manufacturer's instructions (NanoTemper Technologies GmbH, Munich, Germany). The proteins were first diluted to a concentration of 8 nM in assay buffer (50 mM Tris–HCl, pH 7.4, containing 150 mM NaCl, 5% ethanol, and 10 mM MgCl2). To determine the Kd values, the proteins were mixed with the test compounds in a 1 : 1 ratio as stated in the manufacturers protocol. The final concentration of Hsp90β was 4 nM, with compounds added in the following ranges: 1000 μM to 5.86 μM for 8c; 312.5 μM to 0.15 μM for 13g and 125 μM to 3.91 μM for 1. Two independent Kd determinations were performed for compounds 8c and 13g. […] Next, Cdc37 (AR09008PUN, OriGene Technologies, Inc., Rockville, MD, USA) was acquired for the purpose of PPI inhibition evaluation between full-length Hsp90β and Cdc37. […] In all experiments the compounds were incubated with the proteins for 15 minutes in the dark at room temperature. […] Thermophoresis was induced at 1475 ± 15 nm and measured using a Monolith NT.115 pico instrument (NanoTemper Technologies GmbH, Munich, Germany). […] To calculate the Kd values, the average fluorescence responses for each concentration were plotted against the logarithm of compound concentrate on using GraphPad Prism software (GraphPad Software, Inc., La Jolla, CA).

[3] = test system: Ewing sarcoma cell line SK-N-MC; assay: MTS cell viability (antiproliferative) assay in SK-N-MC; format: cell-based; settings: 72 hours, mean ± SD; for IC50: Homo sapiens, SK-N-MC
Experimental: as §1, §2

[4] = biological target: T1, full-length Hsp90β (Homo sapiens, UniProt P08238); assay: Microscale thermophoresis (MST) binding to Hsp90β
T1 construct: For the protein expression of full-length Hsp90β, we received plasmids as a kind gift; made in house; host or cells: Escherichia coli strain Rosetta
Experimental: For the protein expression of full-length Hsp90β, we received plasmids as a kind gift from Dr Asta Zubriené at the Institute of Biotechnology, Vilnius University, Lithuania. Hsp90β, tagged with N-terminal 6×His-tag, was expressed in Escherichia coli strain Rosetta. The cells were cultured in LB media supplemented with kanamycin (50 μg mL^−1) and chloramphenicol (34 μg mL^−1) at 37 °C, and protein expression was initiated with 0.5 mM isopropyl β-D-1-thiogalactopyranoside (IPTG) when the OD600 reached 0.8. Following induction, the cells were incubated for 16 hours at 18 °C before being harvested by centrifugation. The cells were resuspended in a lysis buffer containing 40 mM potassium phosphate pH 8.0, 400 mM KCl, 10 mM imidazole, and protease inhibitors (Sigma), and then lysed by sonication. After centrifugation, the proteins were initially purified using a Ni^2+-affinity HisTrap column (GE Healthcare). Impurities were washed away with lysis buffer containing 20–40 mM imidazole, and Hsp90β was subsequently eluted with lysis buffer containing 300 mM imidazole. The purification process continued with size exclusion chromatography (SEC) using a Superdex-200 (16/600) column (GE Healthcare) and a running buffer of 50 mM Tris pH 7.5 at room temperature, 300 mM KCl. The purity of the fractions was confirmed by SDS-PAGE, and they were then concentrated. For the NMR experiments, Hsp90β was dialyzed against NMR buffer (50 mM potassium phosphate pD 7.5, 100 mM KCl, 2 mM DTT (98%, D10) in D2O) and subsequently frozen in liquid nitrogen.
The full-length Hsp90β was labeled using the Monolith His-Tag Labeling Kit RED-tris-NTA following the manufacturer's instructions (NanoTemper Technologies GmbH, Munich, Germany). The proteins were first diluted to a concentration of 8 nM in assay buffer (50 mM Tris–HCl, pH 7.4, containing 150 mM NaCl, 5% ethanol, and 10 mM MgCl2). To determine the Kd values, the proteins were mixed with the test compounds in a 1 : 1 ratio as stated in the manufacturers protocol. The final concentration of Hsp90β was 4 nM, with compounds added in the following ranges: 1000 μM to 5.86 μM for 8c; 312.5 μM to 0.15 μM for 13g and 125 μM to 3.91 μM for 1. Two independent Kd determinations were performed for compounds 8c and 13g. […] Next, Cdc37 (AR09008PUN, OriGene Technologies, Inc., Rockville, MD, USA) was acquired for the purpose of PPI inhibition evaluation between full-length Hsp90β and Cdc37. […] In all experiments the compounds were incubated with the proteins for 15 minutes in the dark at room temperature. The mixtures were then loaded into Monolith NT.115 Premium Capillaries (NanoTemper Technologies GmbH, Munich, Germany). Thermophoresis was induced at 1475 ± 15 nm and measured using a Monolith NT.115 pico instrument (NanoTemper Technologies GmbH, Munich, Germany). Measurements were conducted at ambient temperature (24–25 °C), with excitation power set to 20% and MST power set to 40%, and a laser on time of 5 seconds. To calculate the Kd values, the average fluorescence responses for each concentration were plotted against the logarithm of compound concentrate on using GraphPad Prism software (GraphPad Software, Inc., La Jolla, CA).

[5] = test system: MCF-7 breast cancer cell line; assay: MTS cell viability (antiproliferative) assay in MCF-7; format: cell-based; settings: MTS assay, 72 hours, mean ± SD; for IC50: Homo sapiens, MCF7, 72 h
Experimental: as §1, §2

T1 sequence (P08238 whole entry): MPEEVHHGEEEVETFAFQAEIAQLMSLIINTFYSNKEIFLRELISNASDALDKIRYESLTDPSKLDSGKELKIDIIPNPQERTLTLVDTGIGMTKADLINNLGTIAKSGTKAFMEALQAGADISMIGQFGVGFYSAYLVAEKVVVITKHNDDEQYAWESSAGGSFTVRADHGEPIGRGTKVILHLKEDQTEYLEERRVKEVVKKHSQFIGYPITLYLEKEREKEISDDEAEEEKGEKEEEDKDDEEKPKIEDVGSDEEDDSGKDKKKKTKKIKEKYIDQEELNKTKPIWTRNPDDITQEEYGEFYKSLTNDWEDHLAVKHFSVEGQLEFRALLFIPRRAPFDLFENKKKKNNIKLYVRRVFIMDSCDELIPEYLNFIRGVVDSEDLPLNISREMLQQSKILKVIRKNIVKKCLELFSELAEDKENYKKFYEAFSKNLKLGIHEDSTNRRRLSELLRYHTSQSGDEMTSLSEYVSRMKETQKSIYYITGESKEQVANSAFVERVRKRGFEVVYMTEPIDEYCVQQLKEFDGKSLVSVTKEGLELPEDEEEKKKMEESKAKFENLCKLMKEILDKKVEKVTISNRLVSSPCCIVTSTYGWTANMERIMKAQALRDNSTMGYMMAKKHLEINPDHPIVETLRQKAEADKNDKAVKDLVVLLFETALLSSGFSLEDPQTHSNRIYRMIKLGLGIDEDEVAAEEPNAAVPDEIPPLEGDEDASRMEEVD

| SMILES | IC50 [1] [µM] | IC50 [3] [µM] | IC50 [5] [µM] | further results |
| --- | --- | --- | --- | --- |
| Cc1nc(Nc2nc(C(=O)N(C)CCOc3ccccc3)cs2)cc(C2CCCN(CC#N)C2)n1 (stereo not drawn) [Compound 1] | > 50 | 25 ± 0.4 | 29.5 ± 5.4 | solubility [2]: poor; concentrations at which an increase in binding could be detected [4]: above 39 μM; highest concentration without compound-induced protein aggregation [4]: 125 µM; binding to Hsp90β (qualitative) ([4]; 125 μM to 3.91 μM): confirmed qualitatively |
| CN(CCOc1ccccc1)C(=O)c1csc(Nc2cc(N3CCCC3)ncn2)n1 [Compound 6c, N-Methyl-N-(2-phenoxyethyl)-2-((6-(pyrrolidin-1-yl)pyrimidin-4-yl)amino)thiazole-4-carboxamide] | > 50 | 26.2 ± 0.4 | 28.1 ± 1.4 | – |
| O=C(NCCOc1ccccc1)c1cccc(Nc2cc(N3CCCC3)ncn2)c1 [Compound 11b, N-(2-Phenoxyethyl)-3-((6-(pyrrolidin-1-yl)pyrimidin-4-yl)amino)benzamide] | > 50 | 26.9 ± 1 | 14.6 ± 4.5 | – |
| O=C(NCCOc1ccccc1)c1ccc(Nc2cc(N3CCCC3)ncn2)cc1 [Compound 11g, N-(2-Phenoxyethyl)-4-((6-(pyrrolidin-1-yl)pyrimidin-4-yl)amino)benzamide] | > 50 | > 50 | > 50 | SK-N-MC IC50 [3]: inactive |
| O=C(NCCOc1ccccc1)c1cccc(Nc2cc(N3CCNCC3)ncn2)c1 [Compound 13b, N-(2-Phenoxyethyl)-3-((6-(piperazin-1-yl)pyrimidin-4-yl)amino)benzamide] | > 50 | 22.2 ± 0.2 | 22.5 ± 3.3 | – |
| O=C(NCCc1ccccc1)c1ccc(Nc2cc(N3CCNCC3)ncn2)cc1 [Compound 13f, N-Phenethyl-4-((6-(piperazin-1-yl)pyrimidin-4-yl)amino)benzamide] | – | – | 17.9 ± 0.5 | – |
| CN(Cc1ccccc1)C(=O)c1ccc(Nc2cc(N3CCNCC3)ncn2)cc1 [Compound 13h, N-Benzyl-N-methyl-4-((6-(piperazin-1-yl)pyrimidin-4-yl)amino)benzamide] | – | – | 14.5 ± 4.7 | – |
| CN(CCc1ccccc1)C(=O)c1ccc(Nc2cc(N3CCNCC3)ncn2)cc1 [Compound 13i, N-Methyl-N-phenethyl-4-((6-(piperazin-1-yl)pyrimidin-4-yl)amino)benzamide] | – | – | 38.3 ± 4.9 | – |
| CN(CCOc1ccccc1)C(=O)c1ccc(Nc2cc(N3CCNCC3)ncn2)cc1 [Compound 13j, N-Methyl-N-(2-phenoxyethyl)-4-((6-(piperazin-1-yl)pyrimidin-4-yl)amino)benzamide] | – | – | 20.8 ± 2.7 | – |
| CN(CCc1ccccc1)C(=O)c1cccc(Nc2cc(N3CCCCC3)ncn2)c1 [Compound 14, N-Methyl-N-phenethyl-3-((6-(piperidin-1-yl)pyrimidin-4-yl)amino)benzamide] | – | – | > 50 | – |
| CN(CCc1ccccc1)C(=O)c1cccc(Nc2cc(N3CCC(N)CC3)ncn2)c1 [Compound 18, 3-((6-(4-Aminopiperidin-1-yl)pyrimidin-4-yl)amino)-N-methyl-N-phenethylbenzamide] | – | – | > 50 | MCF-7 IC50 [5]: not active |
| O=C(NCCOc1ccccc1)c1ccc(Nc2cc(N3CCCCC3)ncn2)cc1 [Compound 19, N-(2-Phenoxyethyl)-4-((6-(piperidin-1-yl)pyrimidin-4-yl)amino)benzamide] | – | – | > 50 | – |
| O=C(NCCOc1ccccc1)c1ccc(Nc2cc(N3CCOCC3)ncn2)cc1 [Compound 20, 4-((6-Morpholinopyrimidin-4-yl)amino)-N-(2-phenoxyethyl)benzamide] | – | – | > 50 | – |
| O=C(NCCOc1ccccc1)c1ccc(Nc2cc(N3CCC(O)CC3)ncn2)cc1 [Compound 21, 4-((6-(4-Hydroxypiperidin-1-yl)pyrimidin-4-yl)amino)-N-(2-phenoxyethyl)benzamide] | – | – | > 50 | – |
| NC1CCN(c2cc(Nc3ccc(C(=O)NCCOc4ccccc4)cc3)ncn2)CC1 [Compound 23, 4-((6-(4-Aminopiperidin-1-yl)pyrimidin-4-yl)amino)-N-(2-phenoxyethyl)benzamide] | – | – | > 50 | – |
| N#CCN1CCN(c2cc(Nc3ccc(C(=O)NCCOc4ccccc4)cc3)ncn2)CC1 [Compound 24, 4-((6-(4-(Cyanomethyl)piperazin-1-yl)pyrimidin-4-yl)amino)-N-(2-phenoxyethyl)benzamide] | – | – | > 50 | MCF-7 IC50 [5]: loss of activity |
